{
  "source": "patent US7879853B2",
  "about": "“4,6-disubstituted pyrimidines and their use as protein kinase inhibitors” (Bayer Schering Pharma AG, priority 2004, dated 2011)",
  "key": {"[1]": {"biological_target": "T1, Akt1 (full-length Akt1, active) (Homo sapiens, UniProt P31749)", "T1 construct": "recombinant full-length human Akt1, containing N-terminal His6 tag; His6 (N); GST (alternative statement of the assay paragraph) (N); purchased Upstate, UK #14-276; host or cells: baculovirus infected Sf21 insect cells", "T1 sequence (P31749 whole entry)": "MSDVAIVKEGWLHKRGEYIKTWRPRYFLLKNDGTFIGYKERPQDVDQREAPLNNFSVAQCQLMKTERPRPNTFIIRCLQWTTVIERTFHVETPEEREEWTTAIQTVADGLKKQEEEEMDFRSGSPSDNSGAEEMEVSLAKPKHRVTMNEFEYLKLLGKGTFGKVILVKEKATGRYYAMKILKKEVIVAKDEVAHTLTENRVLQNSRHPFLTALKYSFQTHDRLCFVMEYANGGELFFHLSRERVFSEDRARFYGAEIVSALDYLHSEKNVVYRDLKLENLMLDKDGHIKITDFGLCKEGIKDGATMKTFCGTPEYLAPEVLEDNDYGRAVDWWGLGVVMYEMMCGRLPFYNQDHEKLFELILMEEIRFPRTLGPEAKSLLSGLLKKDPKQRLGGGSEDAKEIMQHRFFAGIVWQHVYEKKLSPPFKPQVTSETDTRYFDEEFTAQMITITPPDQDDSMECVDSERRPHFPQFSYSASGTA", "experiment": "Biochemical Akt1 (active) assay (full-length Akt1), flashplate, Crosstide", "settings": "Crosstide substrate, 100 nM ATP, 60 minutes at 30° C.; read-out: Akt1 inhibition (full-length Akt1, active): IC50", "excerpt": "For the biochemical Akt1 assay recombinant full-length human Akt1, containing N-terminal His6 tag was cloned and expressed in baculovirus infected Sf21 insect cells. Akt1 is activated with GST-MAPKAP-K2 and PDK1, and repurified on Ni2+/NTA-agrose and glutathioneagarose (Upstate, UK; #14-276).\nIn order to study the inhibition of Akt1 (full-length version) according to the invention, a flashplate-based assay has been developed.\nThe full-length Akt1 assay is a biochemical assay using Akt1 N-terminally fused to GST and co-expressed with PDK1 in insect cells. The Akt1 assay is run in 96 well plates by incubating 500 ng/well GST-Akt1, 1 μM Crosstide (N-terminally biotinylated synthetic peptide (KGSGSGRPRTSSFAEG) Upstate, #12-385) as substrate, 10 μl of test compound (test compounds were dissolved as 10 mM solutions in dimethylsulfoxide (DMSO) and subsequently diluted) and 100 nM ATP (including ^33P-ATP) in 100 μl of reaction buffer (50 mM HEPES, pH7.5; 3 mM MgCl2; 3 mM MnCl2; 3 μM Na-Orthovanadat; 1 mM DTT; 1 μg/ml PEG8000) for 60 minutes at 30° C. in 96 well microtiter plates. The reactions are terminated by adding 100 μl stopping buffer (5M NaCl, 35 mM EDTA pH 8,0) for 5 minutes. 190 μl of the reaction mixture are transferred into streptavidin-coated Flashplates (Perkin Elmer, #SMP-103) and incubated for further 30 minutes at room temperature. The plates are washed 3 times by using washing buffer (0.9% NaCl). Relying on the incorporation of ^33P into the peptide substrate crosstide, the detection is based on the specific binding of the biotinylated peptide to the streptavidin-coated surface of scintillator-coated flash plates (NEN, USA; #SMP-103). This phosphorylation is measured by counting the plate for 60 sec. using a plate reader (Wallac Microbeta; Perkin Elmer, USA). The analysis of the data is performed using a biostatistical program (GraphPad Prism, USA)."}, "MDA-MB-468 cells": {"tested_on": "MDA-MB-468 cells", "experiment": "Cellular proliferation/cytotoxicity assay (Alamar Blue), MDA-MB-468", "type": "cell-based", "settings": "Homo sapiens; MDA-MB-468, 48 hours, Alamar Blue (Resazurin); read-out: Anti-proliferative/cytotoxic activity: IC50 MDA468", "experimental": "The anti-proliferative activity of the compounds as described herein, is evaluated using MCF7 and MDA-MB-468 (ATCC HTB-22 and HTB-132) cell lines and the Alamar Blue (Resazurin) cell viability assay (O'Brien et al. Eur J Biochem 267, 5421-5426, 2000). Resazurin is reduced to the fluorescent rescrufin by cellular dehydrogenase activity, correlating with viable, proliferating cells. Test compounds are dissolved as 10 mM solutions in DMSO and subsequently diluted. MCF7 or […] cells were seeded into 96 well flat bottom plates at a density of 10000 cells/well (MCF7) or 5000 cells/well (MDA-MB-468) in a volume of 200 μl/well. 24 hours after seeding, 1 μl each of the compound dilutions are added into each well of the 96 well plates. Each compound dilution is tested as at least as duplicates. Wells containing untreated control cells were filled with 200 μl DMEM containing 0.5% v:v DMSO. The cells are then incubated with the substances for 48 hours at 37° C. in a humidified atmosphere containing 5% carbon dioxide. To determine cell viability, 20 μl of a Resazurin solution (Sigma; 90 mg/l) are added. After 4 hours incubation at 37° C. the fluorescence is measured at an extinction of 544 nm and an emission of 590 nm (Wallac Victor2; Perkin Elmer, USA). For the calculation of the cell viability the emission value from untreated cells is set as 100% viability and the emission rates of treated cells are set in relation to the values of untreated cells. Viabilities are expressed as % values. The corresponding IC50 values of the compounds for cytotoxic activity are determined from the concentration-effect curves by means of non-linear regression. The analysis of the data is performed using a biostatistical program (GraphPad Prism, USA)."}},
  "data": [
    {"compound": "CC(C)(N)c1ccc(C(=O)Nc2ccc(Nc3cc(-c4cccc5c4oc4ccccc45)ncn3)cc2)cc1", "note": "[Compound 69, 4-(1-Amino-1-methyl-ethyl)-N-[4-(6-dibenzofuran-4-yl-pyrimidin-4-ylamino)-phenyl]-benzamide trifluoracetate]", "values": [
      {"measurement": "IC50", "setting": "[1]", "value": "≤ 1.75", "unit": "µM"},
      {"measurement": "IC50", "setting": "MDA-MB-468 cells", "value": "≤ 6.05", "unit": "µM"}
    ]}
  ]
}
